Laboratory results reported in publication PMC9791066, “Investigations into the antibacterial effects and potential mechanism of gambogic acid and neogambogic acid” (Frontiers in Microbiology, 2022).
In brackets after ≈: the same amount, converted by molar mass. Where two headings read alike, the source gives them in different places.

Legend:
[1] = system: Enterococcus faecalis ATCC29212; assay: MIC, microtiter broth dilution; assay type: cell-based; conditions: LB broth, 18 h
Procedure: (§1) Antibacterial activities were performed by examining the minimal inhibitory concentrations (MICs), which was determined by a microtiter broth dilution method as previously described ([Cotsonas King and Wu, 2009]), with minor modifications. Briefly, 96-well plates (Corning) were inoculated with 100 μl of LB broth per well containing 7 × 10^5 CFU/mL bacteria, followed by adding 100 μl of LB broth containing two-fold serial dilutions of the test compounds. […] After 18 h of incubation, the MIC was determined to be the lowest concentration without visible bacterial growth. The results were the averages of at least three biological replicates.

[2] = system: Escherichia coli ATCC25922; assay: MIC, microtiter broth dilution; assay type: cell-based; conditions: LB broth, 18 h
Procedure: as §1

[3] = system: Listeria monocytogenes ATCC19117; assay: MIC, microtiter broth dilution; assay type: cell-based; conditions: LB broth, 18 h
Procedure: as §1

[4] = system: Staphylococcus aureus ATCC29213; assay: MIC, microtiter broth dilution; assay type: cell-based; conditions: LB broth, 18 h
Procedure: as §1

MRSA = assay: MIC, microtiter broth dilution; assay type: cell-based, Staphylococcus aureus; conditions: LB broth, 18 h
Procedure: as §1

Escherichia coli BAS 849 = assay: microbe, parasite or virus in culture; assay type: cell-based; conditions: LB broth, 18 h, strain with deficient outer-membrane structure
Procedure: as §1

[5] = system: Escherichia coli BL21 (DE3); assay: microbe, parasite or virus in culture; assay type: cell-based; conditions: LB broth, 18 h
Procedure: as §1

Escherichia coli DH5α = assay: microbe, parasite or virus in culture; assay type: cell-based; conditions: LB broth, 18 h
Procedure: as §1

[6] = Enterococcus faecalis, ATCC29212, read-out: MIC
[7] = Listeria monocytogenes, ATCC19117, read-out: MIC
[8] = Staphylococcus aureus, ATCC29213, read-out: MIC
[9] = Staphylococcus aureus, MRSA, read-out: MIC
[10] = Escherichia coli, read-out: MIC

## COc1cc(O)c2c(O)c3c(c4c2c1[C@]1(C4)C(C)=CCCC1(C)C)[C@H](O)[C@@]1(O)CC(=O)C(C(N)=O)=C(O)[C@@]1(O)C3=O [VirA, viridicatumtoxins A]
[1]
  MIC: 2 µg/mL (≈ 3.54 µM)
[2]
  MIC: > 64 µg/mL
[3]
  MIC: 2 µg/mL (≈ 3.54 µM)
[4]
  MIC: 1 µg/mL (≈ 1.77 µM)
MRSA
  MIC: 1 µg/mL (≈ 1.77 µM)
Escherichia coli BAS 849
  MIC: 8 µg/mL (≈ 14.1 µM)
[5]
  MIC: > 64 µg/mL
Escherichia coli DH5α
  MIC: > 64 µg/mL

## COc1cc(O)c2c(O)c3c(c4c2c1C1(C4)C(C)=CCCC1(C)C)C1(O)OC12CC(=O)C(C(N)=O)=C(O)C2(O)C3=O (stereo not shown) [VirB, viridicatumtoxins B]
[1]
  MIC: 1 µg/mL (≈ 1.77 µM)
[2]
  MIC: > 64 µg/mL
[3]
  MIC: 1 µg/mL (≈ 1.77 µM)
[4]
  MIC: 1 µg/mL (≈ 1.77 µM)
MRSA
  MIC: 1 µg/mL (≈ 1.77 µM)
Escherichia coli BAS 849
  MIC: 8 µg/mL (≈ 14.2 µM)
[5]
  MIC: > 64 µg/mL
Escherichia coli DH5α
  MIC: > 64 µg/mL

## CC1(C)S[C@@H]2[C@H](NC(=O)[C@H](N)c3ccccc3)C(=O)N2[C@H]1C(=O)O [Amp, ampicillin]
[1]; [6]
  MIC: 0.5 µg/mL (≈ 1.43 µM)
[2]; Escherichia coli, ATCC25922, read-out: MIC
  MIC: 1 µg/mL (≈ 2.86 µM)
[3]; [7]
  MIC: 1 µg/mL (≈ 2.86 µM)
[4]; [8]
  MIC: 1 µg/mL (≈ 2.86 µM)
MRSA; [9]
  MIC: 1 µg/mL (≈ 2.86 µM)
Escherichia coli BAS 849; Escherichia coli, BAS849, read-out: MIC
  MIC: 0.5 µg/mL (≈ 1.43 µM)
[5]; [10]
  MIC: 1 µg/mL (≈ 2.86 µM)
Escherichia coli DH5α; [10]
  MIC: 2 µg/mL (≈ 5.72 µM)

## CN(C)[C@@H]1C(O)=C(C(N)=O)C(=O)[C@@]2(O)C(O)=C3C(=O)c4c(O)cccc4[C@@](C)(O)[C@H]3C[C@@H]12 [Tet, Tetracycline]
[1]; [6]
  MIC: 8 µg/mL (≈ 18 µM)
[3]; [7]
  MIC: 2 µg/mL (≈ 4.5 µM)
[4]; [8]
  MIC: 0.5 µg/mL (≈ 1.13 µM)
MRSA; [9]
  MIC: 2 µg/mL (≈ 4.5 µM)
